Where no end group is shown, it is not given here.
Key:
[1] = biological target: PKA-C^E31V (catalytic α subunit of cAMP-dependent protein kinase A) (Homo sapiens, UniProt P17612, E32V); assay: steady-state coupled enzyme assay; type: biochemical
[2] = biological target: PKA-C^WT (catalytic α subunit of cAMP-dependent protein kinase A) (Homo sapiens, UniProt P17612); assay: steady-state coupled enzyme assay; type: biochemical

LRRASLG [Kemptide]
steady-state coupled enzyme assay (kcat/KM) [1]: 0.46 ± 0.04
steady-state coupled enzyme assay (kcat/KM) [2]: 0.41 ± 0.05
